Patent US20220380430A1, “Non-Transgenic Functional Rescue of Neuropeptides” (Worcester Polytechnic Institute, priority 2021, published 2022)
pEC50: −log10 of the molar value. “Also recorded” adds a separate entry of the source. No end group written: not given here.

What was measured:
him-5 and pdf-1 males = test: Excursion (food-leaving) assay after rescue-by-feeding; assay type: in vivo, C. elegans; conditions: for PL (confidence interval): Probability of Leaving per hour, beyond 35 mm from food
Text: We quantified the behavioral activity of pdf-1 lof males using a food-leaving behavior as previously described. Individuals were placed on a small food spot, and track patterns were scored at three different time points (2, 6, 24 hrs) (FIG. 4A). “Never left food” indicate the absence of tracks outside the food spot. […] “Major excursion” indicates the presence of tracks past the 1 cm boundary (FIG. 1B, Excursion Assay). The food-leaving behavior was quantified as a measure of mate-searching behavior. In this behavior well-fed males left food in search of mates and the data is represented as a Probability of Leaving (PL) (FIG. 7A).
The mate searching behavior of pdf-1 mutants was quantified in a food leaving assay. him-5 animals were used as wild-type control to ensure the presence of males. him-5 and pdf-1 animals were fed OP50, scramble peptide, PDF-1A, PDF-1B, or a 1:1 mixture of PDF-1A and PDF-1B cultures. Four to six larval L4 hermaphrodites were passed onto an NGM plate containing […] AMP and 1 mM IPTG with 75 μL of peptide. These worms were grown at 20° C. for about 4 days until the male progeny of the initial L4 worms were young adults. The day prior to the assay, young adult male pdf-1 or him-5 worms were singled onto 60 mm plates containing lawns of either OP50 (NGM plates) or appropriate peptide cultures (NGM containing […] AMP and 1 mM IPTG). To determine the mate searching effects of pdf-1, we performed a food-leaving assay as described previously in Barrios, A., et al., Nat Neurosci 15, 1675-1682 (2012); Lipton, J., et al., The Journal of neuroscience: the official journal of the Society for Neuroscience 24, 7427-7434 (2004); Ryan, D. A. et al. Curr Biol 24, 2509-2517 (2014), with modifications. In this assay, individuals were placed on a small food spot, and track patterns were scored at the indicated times. Assay plates were prepared one day prior to assaying on 100 mm plates with 10 mL of Leaving Assay media (25 mM KPO4 (pH 6.0), 1 mM MgSO4, 1 mM CaCl2), 50 mM NaCl, 2.5 g/L Peptone, 17 g/L Agar). On center of plate, 7 μL of OP50 was added. Plates were lightly covered and stored at room temperature overnight (˜20° C., <40% humidity).
On the day of the assay, a single male was plated on the assay plate and placed in a dark, 20° C. incubator. At 2, 6, and 24 hours after the worms are plated, plates were scored for male worm tracks. Scored were separated into binned ranges. “Never left food” indicates the absence of tracks outside the food spot. […] “Major excursion” indicates the presence of tracks past the 1 cm boundary. The food leaving behavior was quantified at three different time points (2, 6, and 24 hours). (FIG. 4A, FIG. 7A, Table IV).
The mate searching defect of pdf-1 was quantified as a Probability of Leaving per hour (PL) (FIG. 4B, FIG. 7B).
The assay was performed across at least two days per condition, with at least n=50, wherein each assay plate with one male is equal to n=1. In all experiments, the investigators were blinded to genotype. Worm in the >35 mm from the center of food bin were scored as “leavers”. The probability of leaving per hour (Probability of Leaving (PL)) was calculated using an R script developed in Barrios et al., with assistance by (Personal Communications to Barrios, 2020). PL was calculated by the “hazard obtained by fitting an exponential parametric survival model to the censored data using maximum likelihood” (Table IV). The PLh-1 values for all pdf-1 animals fed scramble or peptide rescue were compared to him-5 worms fed scramble using an ANOVA followed by Bonferroni's multiple comparison (FIG. 4B, FIG. 7C).

FRPR-16 = target: T1, FRPR-16 (Caenorhabditis elegans, UniProt Q21957); test: In vitro GPCR activation assay (CHO-K1 cells, aequorin, human Gα16), FRPR-16; assay type: cell-based, C. elegans; conditions: for pEC50: calcium/aequorin luminescence in transfected CHO-K1 cells; for activation of FRPR-16: in words
T1 sequence (Q21957 1-340): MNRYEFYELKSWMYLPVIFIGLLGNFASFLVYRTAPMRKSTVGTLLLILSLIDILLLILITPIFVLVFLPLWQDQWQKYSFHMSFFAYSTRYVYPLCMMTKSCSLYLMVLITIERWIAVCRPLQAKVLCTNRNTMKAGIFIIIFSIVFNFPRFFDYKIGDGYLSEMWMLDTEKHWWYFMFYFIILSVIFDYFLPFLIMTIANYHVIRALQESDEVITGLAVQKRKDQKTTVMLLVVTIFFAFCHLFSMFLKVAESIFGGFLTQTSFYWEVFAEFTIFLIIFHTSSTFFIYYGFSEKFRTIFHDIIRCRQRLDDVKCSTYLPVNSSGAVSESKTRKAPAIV
Experimental: (§1) The GPCR activation assay was performed as previously described Van Sinay, E. et al. Proc. Natl Acad. Sci. USA 114, E4065-e4074 (2017) and Peymen, K. et al. PLoS Genet. 15, e1007945 (2019). Briefly, npr-10 and frpr-16 cDNAs were cloned into the pcDNA3.1 TOPO expression vector (Thermo Fisher Scientific). A CHO-K1 cell line (PerkinElmer, ES-000-A24) stably expressing apo-aequorin targeted to the mitochondria (mtAEQ) and human Gα16 was transiently transfected with the receptor cDNA construct or the empty pcDNA3.1 vector using Lipofectamine LTX and Plus reagent (Thermo Fisher Scientific). Cells were shifted to 28° C. one day later and allowed to incubate for 24 h. On the day of the assay, cells were collected in BSA medium (DMEM/Ham's F12 with 15 mM HEPES, without phenol red, 0.1% BSA) and loaded with […] coelenterazine h (Thermo Fisher Scientific) for 4 h at room temperature. The incubated cells were then added to synthetic peptides dissolved in DMEM/BSA, and luminescence was measured for 30 s at […] using a Mithras LB940 (Berthold Technologies) or MicroBeta LumiJet luminometer (PerkinElmer). After 30 s of readout, 0.1% triton X-100 was added to lyse the cells, resulting in a maximal calcium response that was measured for 10 s. After initial screening, concentration-response curves were constructed for HPLC-purified FLP-3 peptides by subjecting the transfected cells to each peptide in a concentration range from 1 pM to 10 μM. Cells transfected with an empty vector were used as a negative control. Assays were performed in triplicate on at least two independent days. Concentration-response curves were fitted using Prism v. 7 (nonlinear regression analysis with a sigmoidal concentration-response equation).

NPR-10B = target: T2, NPR-10B (Caenorhabditis elegans, UniProt Q6EUU1); test: In vitro GPCR activation assay (CHO-K1 cells, aequorin, human Gα16), NPR-10B; assay type: cell-based, C. elegans; conditions: for pEC50: title: NPR-10B, calcium/aequorin luminescence in transfected CHO-K1 cells; for activation of NPR-10 (NPR-10B): in words
T2 sequence (Q6EUU1 1-362): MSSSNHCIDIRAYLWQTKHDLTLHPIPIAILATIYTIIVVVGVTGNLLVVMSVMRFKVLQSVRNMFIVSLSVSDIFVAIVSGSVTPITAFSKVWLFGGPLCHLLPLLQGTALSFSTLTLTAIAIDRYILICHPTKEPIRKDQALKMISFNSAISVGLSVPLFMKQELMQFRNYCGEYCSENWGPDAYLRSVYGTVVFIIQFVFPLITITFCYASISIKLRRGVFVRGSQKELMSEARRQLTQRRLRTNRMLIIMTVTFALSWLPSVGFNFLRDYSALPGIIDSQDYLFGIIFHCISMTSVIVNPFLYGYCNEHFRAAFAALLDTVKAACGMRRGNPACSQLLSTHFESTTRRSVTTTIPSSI
Experimental: Using Chinese hamster ovarian (CHO) cell cultures stably expressing the promiscuous G protein, Gα16, and the calcium reporter, aequorin, it was observed that both isoforms of NPR-10 are activated by seven of the ten FLP-3 peptides, with half-maximal effective concentrations (EC50) in the nM range (FIG. 14A-FIG. 14H, Table V). […] This peptide contains an R-to-K mutation within the C-terminal motif, which may explain the lack of receptor activation.
as §1

flp-3 lof males = test: Drop avoidance assay to ascr #8 after FLP-3 peptide rescue-by-feeding; assay type: in vivo, C. elegans; conditions: flp-3 lof males raised on peptide; 1 μM ascr #8; in words
Experimental: To identify which FLP-3 peptides are required for male avoidance of ascr #8, a peptide feeding approach https://www.nature.com/articles/s42003-021-02547-7-ref-CR59 was adopted, similar to RNAi feeding (FIG. 16A). Using Gateway Cloning technology, FLP-3 peptide coding sequences were inserted into a bacterial expression vector. As a control, first the FLP-3 peptides were tested that are still encoded in the ok3625 allele which are insufficient to drive the proper ascr #8 response in vivo: FLP-3-1 (SPLGTMRFamide) (SEQ ID NO: 10) and FLP-3-4 (NPLGTMRFamide) (SEQ ID NO: 11). Then flp-3 lof animals were reared on lawns of bacteria expressing the rescue constructs, and their progeny were assayed for avoidance (FIG. 16B-FIG. 16D).
Assays were performed as described previously in Chute, C. D. & Srinivasan, J. Semin. Cell Dev. Biol. 33, 18-24 (2014); Chute, C. D. et al. Nat. Commun. 10, 3186 (2019); and Hilliard, M. A. et al., EMBO J. 23, 1101-1111 (2004). Fifty to sixty L4 worms were segregated by sex and stored at 20° C. for 5 h to overnight to be assayed as young adults. One to four hours prior to the assay, the lids of unseeded plates were tilted to allow any excess moisture to evaporate off the plates. At the time of the assay, 10 or more animals were transferred onto each of the dried, unseeded plates. A drop of either water or 1 μM ascr #8 was placed on the tail of forward moving animals, and their response was scored as either an avoidance response, or no response. The total number of avoidances was divided by the total number of drops to generate an avoidance index for that plate. This was repeated for at least 10 plates over at least three different days.
SCRAMBLE control or FLP-3 peptide constructs were grown overnight in LB media containing […] ampicillin at 37° C. and diluted to an OD600 of 1.0 prior to seeding on NGM plates containing […] ampicillin and 1 mM IPTG. The 75 μL lawn was left to dry and grow overnight at room temperature before three L4 animals were placed on the plates. Males were selected for testing in the same manner as described above but were isolated onto plates also seeded with the same peptide on which they had been reared. Animals were then assayed using either the avoidance assay or single worm assay.

## SNAELINGLLSMNLNKLSGAG-NH2 [PDF-1B]
him-5 and pdf-1 males; him-5 males
  PL (confidence interval): 0.08712 (0.0754, 0.1007)
him-5 and pdf-1 males; pdf-1 lof males fed peptide
  Probability of Leaving, comparison in words: significantly different PL from pdf-1 males fed PDF-1A alone
him-5 and pdf-1 males; pdf-1 lof males, 2, 6, 24 hrs
  rescue of food-leaving behavior (percent of males leaving food): complete rescue of food-leaving behavior
him-5 and pdf-1 males; pdf-1 males
  PL (confidence interval): 0.05821 (0.04761, 0.07118)

## SNAELINGLIGMDLGKLSAVG-NH2 [PDF-1A]
him-5 and pdf-1 males; him-5 males
  PL (confidence interval): 0.06979 (0.05892, 0.08269)
him-5 and pdf-1 males; pdf-1 males
  PL (confidence interval): 0.03287 (0.02657, 0.04224)

## SAEPFGTMRF-NH2 [FLP-3-7, SAEPFGTMRFamide]
FRPR-16
  pEC50: 7.40
NPR-10B
  pEC50: 6.36

## STVDSSEPVIRDQ [FLP-3-10]
FRPR-16
  activation of FRPR-16: did not activate FRPR-16; also recorded: did not activate either receptor
NPR-10B
  activation of NPR-10 (NPR-10B): failed to activate the receptor; also recorded: did not activate either receptor
flp-3 lof males
  rescue of avoidance phenotype to ascr #8 (Avoidance Index): unable to rescue the avoidance phenotype

## EDGNAPFGTMKFamide (EDGNAPFGTMKF-NH2) [FLP-3-6]
FRPR-16
  activation of FRPR-16: did not activate FRPR-16; also recorded: did not activate either receptor
NPR-10B
  activation of NPR-10 (NPR-10B): did not activate NPR-10; also recorded: did not activate either receptor

## NPLGTMRF-NH2 [FLP-3-4, NPLGTMRFamide]
FRPR-16
  pEC50: 7.97
NPR-10B
  pEC50: 6.37
flp-3 lof males
  rescue of avoidance phenotype to ascr #8 (Avoidance Index): unable to rescue the avoidance phenotype on their own

## ASEDALFGTMRF-NH2 [FLP-3-5, ASEDALFGTMRFamide]
FRPR-16
  pEC50: 7.14
NPR-10B
  pEC50: 5.96

## EAEEPLGTMRF-NH2 [FLP-3-3, EAEEPLGTMRFamide]
FRPR-16
  pEC50: 6.54
NPR-10B
  pEC50: 6.06

## SPLGTMRF-NH2 [FLP-3-1, SPLGTMRFamide]
FRPR-16
  pEC50: 8.13
NPR-10B
  pEC50: 6.58
flp-3 lof males
  rescue of avoidance phenotype to ascr #8 (Avoidance Index): unable to rescue the avoidance phenotype on their own
